Reference: paper PMC8835841, “Novel NK1R-Targeted ^68Ga-/^177Lu-Radioconjugates with Potential Application against Glioblastoma Multiforme: Preliminary Exploration of Structure–Activity Relationships” (International Journal of Molecular Sciences, 2022)
Where “and” joins values, the source holds several entries; their conditions need not be identical. Equal entries are not always repeated. Where two headings read alike, the source gives them in different places. Values belong to the molecule of their own block, whether it stands above or below them. Square brackets hold non-standard residues; d marks the D form. Peptide text beside a SMILES is read from it. * marks the point of attachment. DOTA = O=C(O)CN1CCN(CC(=O)O)CCN(CC(=O)*)CCN(CC(=O)O)CC1; Met(O2) = CS(=O)(=O)CC[C@H](N)C(=O)O; 2Thi = N[C@@H](Cc1cccs1)C(=O)O

Experiments:
[1] = system: hNK1R Q165A mutant; details: read-out: IC50 Q165A mutant hNK1R; Gln165Ala mutation; cited from earlier work
[2] = system: hNK1R His197Ala mutation; details: versus wild type; cited from earlier work
[3] = system: hNK1R His197Phe mutation; details: versus wild type; cited from earlier work
[4] = physchem; type: physicochemical
Description: A lipophilicity study was also performed right after the SPE method purification and ethanol evaporation. For each DOTA radioconjugate, the lipophilicity value was estimated as the logarithm of the distribution coefficient (D) based on the ratio of the radioactivity of the organic phase to the radioactivity of the aqueous phase in the n-octanol/PBS (pH 7.40) system. Simultaneously, the stability of the studied radioconjugate during the experiment was verified through the HPLC analysis of the aqueous phase.
A solution of isolated radioconjugate (approximately 0.5 MBq for ^177Lu-radioconjugates or 5 MBq for ^68Ga-radioconjugates) in 500 µL of 0.1 M PBS buffer (pH 7.40) and 500 µL of n-octanol was vigorously stirred and centrifuged (13,500 rpm for 5 min) to separate the immiscible phases. Then, the radioactivity of samples from both phases were measured using a well-type NaI(Tl) detector. The distribution coefficient, D, was calculated dividing the radioactivity of the radioconjugate in the organic phase to that in the aqueous phase. Each experiment was performed in triplicate and averaged. In parallel, the aqueous phases were analysed by HPLC to confirm the stability of studied radioconjugate during the experiment period. The lipophilicity value of each radioconjugates was expressed as the logarithm of its D value.

[5] = molecular target: T1, hNK1R (Homo sapiens, UniProt P25103); experiment: Saturation binding assay of 177Lu-radioconjugates on CHO-NK1R cells; details: for Kd: read-out: Kd ± SD
T1 construct: expressed in transfected cells; host or cells: CHO-K1 (hNK1-CHO), gift from Dr. Attila Keresztes and Dr. John M. Streicher
Description: The saturation binding studies of ^177Lu-radioconjugates were performed using transfected CHO-NK1R cell line, and all radioconjugates were obtained according to the common labelling protocol given above with the same specific activity. In brief, 10^5 cells per well were seeded into 24-well plates and incubated 24 h before the experiment. […] After that time, the assay medium was collected into plastic tubes and cells were washed twice with cold Dulbecco’s PBS. Subsequently, cells were lysed using 1M NaOH and collected into plastic tubes for radioactivity measurement. The radioactivity of collected medium and lysed cells was measured using a Wizard^2 2-Detector Gamma Counter (PerkinElmer, Waltham, MA, USA) with the energy window of 50–500 keV. The study data came from three independent experiments carried out in duplicate, while the results, presented as the Kd and BMAX with SD, were calculated using a total and nonspecific binding (one site) nonlinear regression curve fit (GraphPad Prism version 8.0, GraphPad, San Diego, CA, USA).

[6] = pH 7.4, logD7.4 (Mean ± SD) 68Ga-
[7] = pH 7.4, logD7.4 (Mean ± SD) 177Lu-
[8] = ratio to [177Lu]Lu-DOTA-[Thi8,Met(O2)11]SP

T1 sequence (P25103 whole entry): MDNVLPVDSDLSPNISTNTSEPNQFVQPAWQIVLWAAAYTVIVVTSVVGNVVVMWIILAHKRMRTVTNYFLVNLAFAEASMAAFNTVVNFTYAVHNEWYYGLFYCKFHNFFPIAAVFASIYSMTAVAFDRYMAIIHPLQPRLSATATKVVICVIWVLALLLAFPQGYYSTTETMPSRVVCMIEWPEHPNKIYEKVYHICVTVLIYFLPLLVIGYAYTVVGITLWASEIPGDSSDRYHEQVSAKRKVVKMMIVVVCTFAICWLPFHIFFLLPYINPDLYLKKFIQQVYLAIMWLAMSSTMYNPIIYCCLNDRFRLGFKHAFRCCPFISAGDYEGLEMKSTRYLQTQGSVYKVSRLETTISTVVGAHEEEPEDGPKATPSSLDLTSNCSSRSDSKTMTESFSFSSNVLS

SMILES: CC(=O)N[C@@H](Cc1c[nH]c2ccccc12)C(=O)OCc1cc(C(F)(F)F)cc(C(F)(F)F)c1 [Compound 1c, 3,5-bis(trifluoromethyl)benzyl acetyl-L-tryptophanate]
- IC50 [1]: 8.1 nM
- decrease of affinity with His197Ala mutation [2]: ten-fold
- effect of His197Phe mutation on affinity [3]: no effect

SMILES: O=C(O)CN1CCN(CC(=O)O)CCN(CC(=O)NCCCCCC(=O)NCCCCCC(=O)N[C@@H](Cc2c[nH]c3ccccc23)C(=O)OCc2cc(C(F)(F)F)cc(C(F)(F)F)c2)CCN(CC(=O)O)CC1 [[^68Ga]Ga-5d, metal not drawn]
- logD [4, 6]: -0.466 ± 0.016

SMILES: O=C(O)CN1CCN(CC(=O)O)CCN(CC(=O)NCCCCCC(=O)NCCCCCC(=O)N[C@@H](Cc2c[nH]c3ccccc23)C(=O)OCc2cc(C(F)(F)F)cc(C(F)(F)F)c2)CCN(CC(=O)O)CC1 [[^177Lu]Lu-5d, metal not drawn]
- logD [4, 7]: 0.294 ± 0.013

- Kd [5]: 6.15 ± 0.64 nM
SMILES: CC(C)C[C@H](NC(=O)CNC(=O)[C@H](Cc1cccs1)NC(=O)[C@H](Cc1ccccc1)NC(=O)[C@H](CCC(N)=O)NC(=O)[C@H](CCC(N)=O)NC(=O)[C@@H]1CCCN1C(=O)[C@H](CCCCN)NC(=O)[C@@H]1CCCN1C(=O)[C@H](CCCNC(=N)N)NC(=O)CN1CCN(CC(=O)O)CCN(CC(=O)O)CCN(CC(=O)O)CC1)C(=O)N[C@@H](CCS(C)(=O)=O)C(N)=O [[^177Lu]Lu-DOTA-[Thi^8,Met(O2)^11]SP, metal not drawn, reference compound] ({DOTA}-RPKPQQF[2Thi]GL[Met(O2)]-NH2; N-terminus and C-terminus assumed)

- BMAX ± SD ([5]; CHO-NK1R cells, 60 min at 37 °C): 0.762 nM and 0.762 ± 0.046 nM
- Kd ([5]; CHO-NK1R cells, 60 min at 37 °C, aprepitant as blocker): 6.98 ± 0.69 nM
- BMAX Ratio to SP [5, 8]: 0.82
- Kd Ratio to SP [5, 8]: 1.13
SMILES: O=C(O)CN1CCN(CC(=O)O)CCN(CC(=O)N[C@@H](Cc2c[nH]c3ccccc23)C(=O)OCc2cc(C(F)(F)F)cc(C(F)(F)F)c2)CCN(CC(=O)O)CC1 [[^177Lu]Lu-1d, metal not drawn]
- logD [4, 7]: 0.4 ± 0.004

SMILES: O=C(O)CN1CCN(CC(=O)O)CCN(CC(=O)NCCCCCC(=O)N[C@@H](Cc2c[nH]c3ccccc23)C(=O)OCc2cc(C(F)(F)F)cc(C(F)(F)F)c2)CCN(CC(=O)O)CC1 [[^68Ga]Ga-4d, metal not drawn]
- logD [4, 6]: 0.071 ± 0.023
